# Measured values taken from US6339062B1, “Retroinverso polypeptides that mimic or inhibit thrombospondin activity” (Inkine Pharmaceutical Company, Inc., priority 1998, dated 2002).
# Bridges are numbered along the chain shown (N, C = ends). Where no end group is shown, it is not given here. The star is where a group is joined. For = O=C*
# Experiments:
# [1] = test system: mouse B16-F10 melanoma cells; experiment: Direct adhesion to dried peptide (Example 31); assay type: cell-based; settings: 10 μg of each peptide; one hour; FIG. 20
# Experimental: Peptide effect on direct adhesion was tested by drying 10 μg of each peptide on the bottom of a 96well microtiter plate. Plates were blocked with BSA. Mouse B16-F10 melanoma cells (50,000) were plated in each well and allowed to attach for one hour. Non-adherent cells were aspirated out, plates rinsed, and adherent cells were fixed, stained, and counted. The error bars represent the standard deviation.
# [2] = test system: MMP-9 production in BAE cells; experiment: TSP-1-stimulated endothelial MMP-9 production (Example 27); assay type: cell-based; settings: for Relative MMP-9 Levels / % inhibition (MMP-9): with 15 μg/ml TSP-1; for inhibited MMP-9 production: at high doses
# Experimental: BAE cells were treated with TSP-1 as described in Example 27. MMP-9 levels were quantitated from densitometry of the zymograms prepared from the BAE cell conditioned media. The control was 15 μg/ml TSP-1. All other treatments were performed in the presence of 15 μg/ml TSP-1.
# [3] = test system: mouse B16-F10 melanoma cells; experiment: Boyden chamber assay, TSP-1 mediated invasion of collagen (Examples 29, 30); assay type: cell-based; settings: for inhibition of TSP-1 mediated invasion: 500 μg/ml peptide top chamber, 20 μg/ml TSP-1 bottom chamber, 6 hours, FIG. 18
# Experimental: Cell invasion was investigated by the Boyden Chamber Invasion Assay using the modified Boyden chamber. T. Frandsen et al., Fibrinolysis, 6: 71-76 (1992). Polycarbonate filters, 12 μm pore size, e.g., Millicell, Millipore Corporation, Bedford, Ma, were coated with 100 μg Type IV collagen (1 mg/ml 60% EtOH) and dried overnight at 25° C. Blind-well Boyden chambers are filled with 600 μl of serum-free media containing 0.1% BSA in the lower compartment, and the coated filters will be mounted in the chamber. Approximately 50,000 cells (tested to be greater than 95% viable) suspended in 400 μl of the same media will be placed in the upper chamber of the apparatus and allowed to settle onto the collagen-coated membrane. Varying concentrations of TSP-1 (0-150 nM) will be placed in the lower compartment and any neutralizing antibodies as well as peptides will be placed in the upper chamber. After an incubation period of about 3 to 6 hours at 37° C., the cells on the upper surface of the filter will be removed with a cotton swab. The filters are then fixed in 3% glutaraldehyde solution and stained with 0.5% crystal violet solution. Invasive cells adhering to the under-surface of the filter are counted using a phase contrast microscope (400×).
# Using this assay, mouse B16-F10 melanoma cells (50,000) were plated on the collagen-coated disk of the Boyden chamber apparatus. The top chamber contained melanoma cells in the presence of 500 μg/ml of the TSP-1 derived peptide and the bottom chamber contained 20 μg/ml TSP-1. After 6 hours, cells traversing the collagen were counted as cells attached to the underside of the collagen-coated disk. Five representative fields per chamber in duplicate were counted. The data shown in FIG. 18 represents the average per field and the error bars represent the standard deviation. The scrambled peptide, Val-Cys-Thr-Gly-Ser-Cys (SEQ ID NO: 7), the irrelevant peptide, Ala-Ser-Val-Thr-Ala-Arg (SEQ ID NO: 38), buffer, and the d-amino acid Cys-Ser-Val-Thr-Cys-Gly (SEQ ID NO: 40) had no effect on invasion.
# The experiments were performed as described for Example 29. […] In contrast, d-Cys-Ser-Val-Thr-Cys-Gly (SEQ ID NO: 40) had no effect.
# [4] = test system: mouse B16-F10 melanoma cells; experiment: Melanoma tumor cell metastasis, peptide i.v. (Example 21); assay type: in vivo, mice; settings: 1 mg peptide i.v. shortly before or after tumor implantation; two weeks; FIG. 12
# Description: Mice were sacrificed two weeks later and lung tumors counted. Treatment groups consisted of five animals. The photograph of FIG. 12 depicts three lungs from each treatment group. The black spots are melanoma tumors. All metastasis experiments were repeated 2-3 times showing qualitatively similar results depicted in the bar graph of FIG. 12.
# [5] = test system: Mouse B16 F10 melanoma cells; experiment: Direct adhesion assay (Example 16); assay type: cell-based; settings: absorbed compound 2 μg
# Experimental: It is believed that thrombospondin acts in metastasis through its adhesive properties. An assay was developed, generally in accordance with the disclosure of Tuszynski et al., Anal. Bio., 184:189-91 (1990), which evaluates the ability of melanoma cells to adhere to the thrombospondin fragments or analogs of the invention. In this assay, wells of a 96-well microtiter dish (Costar, Cambridge, Mass.) were incubated for two to three hours with […] of a […] solution of various ligands in 20 mM NaCl, pH 7.3. Thrombospondin (purified by the method of Tuszynski et al., J. Biol. Chem., 260:12240-5 (1985), fibronectin (Sigma Chemical Co., Missouri) served as the positive control. Bovine serum albumin (BSA) (Sigma Chemical Co.) served as the negative control. Thrombospondin analogs of the invention p1, p5 and p6 were synthesized as described in Examples 1 through 3. Following peptide adhesion to the microtiter dish, the wells were aspirated, treated with 200 μl phosphate buffered saline (PBS) containing 1% BSA for 1 hour and then washed three more times with 200 μl PBS.
# Mouse B16 F10 melanoma cells were grown and harvested during log phase of growth using standard procedures. The harvested cells were washed two times in serum-free Dulbecco's minimum essential medium (DMEM) (Flow Laboratories) and suspended in DMEM at a final concentration of 4×10^5 cells/ml. Of the cell suspension 100 μl was added to each well of the microtiter dish containing the various ligands and the dish incubated at 37° C. in a CO2 incubator for 1 hour. Nonadherent cells were removed by aspiration and the wells washed three times with 200 μl of PBS. The total cell-associated protein was determined by dissolving the attached cells directly in the microtiter wells with 200 μl of the Pierce BCA working solution (Pierce Chem. Co. Booklet No. 23225 (1987)). […] Plates were allowed to cool to room temperature, cover sheets were removed, and the absorbance of each well was determined at 562 nm with a microtiter plate reader (Biotek, Burlington, Vt.)
# platelets = experiment: Direct platelet adhesion assay (Example 18); assay type: cell-based; settings: wells treated with 50 μl of 40 μg/ml
# Experimental: The number of adherent platelets was essentially determined as previously described (Tuszynski et al., Anal. Bio., supra). Briefly, 100 μl of 5×10^8 platelets/ml washed as previously described (Tuszynski, et al., Blood, 72:109-225 (1988)) were added to microtiter plates, the wells of which were treated with 50 μl of a 40 μg/ml peptide or protein solution (Hepes buffered saline, pH 7.4). Solutions were dried at room temperature after incubation in a fume hood for two hours. Wells were blocked for one hour with 1% BSA. Platelets (100 μl) were incubated in the wells for 30 minutes and non-adherent platelets were removed by aspiration. Wells were washed 3× with 200 μl of Hepes buffered saline, pH 7.4. The number of adherent platelets was determined by measuring the platelet-derived protein using the BCA protein assay.
# [6] = test system: melanoma cells on absorbed thrombospondin; experiment: Competitive assay, thrombospondin specific adhesion to melanoma cells (Example 17); assay type: cell-based, mouse
# Description: The direct adhesion assay of Example 16 was modified to measure the ability of the peptide compounds of the invention to compete with intact thrombospondin for adhesion to melanoma cells.
# In this assay, intact thrombospondin is absorbed onto microtiter dishes as described in Example 16. […]
# [7] = test system: platelets on absorbed fibronectin (FN); experiment: Competitive platelet adhesion assay, absorbed fibronectin (Example 19); assay type: cell-based; settings: 250 μg/ml; absorbed protein FN
# Experimental: (§1) The direct adhesion assay of Example 18 was modified to measure the ability of the peptide compounds of the invention to compete with intact thrombospindin or fibronectin for adhesion of platelets.
# (§2) In this assay, thrombospondin (TSP) or fibronectin (FN) was absorbed onto microtiter dish as described in Example 18. The assay was similar to Example 18 except that before platelets were added to the microtiter dishes they were preincubated with 250 μg/ml of various ligands.
# [8] = test system: platelets on absorbed thrombospondin (TSP); experiment: Competitive platelet adhesion assay, absorbed thrombospondin (Example 19); assay type: cell-based; settings: 250 μg/ml; absorbed protein TSP
# Experimental: as §1, §2
# [9] = test system: platelets (platelet-rich-plasma); experiment: Platelet aggregation assay in platelet-rich-plasma (Example 8); assay type: cell-based; settings: in vitro; FIG. 22
# Experimental: Platelet aggregation was monitored on a single-channel aggregometer equipped to measure luminescence (Chromo-Log, Havertown, Pa.). Platelet-rich-plasma (PRP) was obtained from whole blood anticoagulated with 0.38% sodium citrate by centrifugation at 150×g for 20 minutes.
# 0.5 ml aliquots of platelet-rich-plasma were aggregated by stirring with 2 uM ADP in the presence of various concentrations of Cys-Ser-Val-Thr-Cys-Gly (SEQ ID NO: 21) and Gly-Arg-Gly-Asp-Ser (SEQ ID NO: 36). Aggregation was measured at 37° as decrease in optical absorbance vs. time in a chrono-log aggregometer and is shown in FIG. 8. Peptides designated in each panel are represented by their amino acid sequence using the one letter amino acid code.
# [10] = test system: B16 F10 mouse melanoma cells; experiment: Antimetastatic activity in vivo (Example 20); parameters: species or system C57 black mice; settings: 16 days
substance,measurement,setting,value
ASVTAR [irrelevant peptide],adhesion of cells to dried peptide,[1],did not promote adhesion
same,Relative MMP-9 Levels,[2]; 0.20 mM,0.78
same,inhibited MMP-9 production,[2],no effects
same,inhibition of TSP-1 mediated invasion,[3],no effect
Arg-Gly-Asp,% inhibition (MMP-9),[2]; 0.50 mM,0%
same,Relative MMP-9 Levels,[2]; 0.50 mM,1.03
same,inhibited MMP-9 production,[2],no effects
CSTSCG (cysteine pairing not given here),melanoma cell metastasis (lung tumors),[4],significantly blocked
Cys-Ser-Val-Thr-Cys-Gly (disulfide linked) (CSVTCG; disulfide 1-5 (inferred)) [cyclic Cys-Ser-Val-Thr-Cys-Gly],melanoma cell metastasis (lung tumors),[4],significantly blocked
Heparin,% inhibition (MMP-9),[2]; 50 μg/ml,6%
same,Relative MMP-9 Levels,[2]; 50 μg/ml,0.94
same,% inhibition (MMP-9),[2]; 500 μg/ml,55%
same,Relative MMP-9 Levels,[2]; 500 μg/ml,0.45
same,% inhibition (MMP-9),[2]; 1000 μg/ml,50%
same,Relative MMP-9 Levels,[2]; 1000 μg/ml,0.50
same,inhibited MMP-9 production,[2],50%
"Thrombospondin: purified thrombospondin, positive control [reference compound]",Adhesion as % Thrombospondin,[5],100%
same,Adherence as % Control (adherent platelets),platelets,100%
Trp-Ser-Pro-Cys-Ser-Val-Thr-Cys-Gly-NH2 (WSPCSVTCG-NH2; cysteine pairing not given here) [p6],% of Buffer Control (melanoma cell adhesion to thrombospondin),[6]; 200 μg/ml,74%
same,% of Buffer Control (melanoma cell adhesion to thrombospondin),[6]; 300 μg/ml,74%
same,% Buffer Control (platelet adhesion),[7],96%
same,% Buffer Control (platelet adhesion),[8],98%
same,platelet aggregation,[9],inhibit platelet aggregation
same,% buffer control (number of lung tumors),[10]; 30 μg/mouse,91%
same,% buffer control (number of lung tumors),[10]; 100 μg/mouse,102%
same,% buffer control (number of lung tumors),[10]; 300 μg/mouse,50%
same,number of tumors compared with controls,[10],statistically fewer tumors than controls
same,size of lung tumors,[10],smaller in size
"VCTGSC (cysteine pairing not given here) [scrambled peptide control, reference compound]",adhesion of cells to dried peptide,[1],did not promote adhesion
same,inhibition of TSP-1 mediated invasion,[3],no effect
WSPCSVTCG (cysteine pairing not given here) [p1],% of Buffer Control (melanoma cell adhesion to thrombospondin),[6]; 10 μg/ml,49%
same,% of Buffer Control (melanoma cell adhesion to thrombospondin),[6]; 50 μg/ml,40%
same,platelet aggregation,[9],inhibit platelet aggregation
same,Adherence as % Control (adherent platelets),platelets,adhere to platelets
same,Adherence as % Control (adherent platelets),platelets; listed as P1,39%
same,% buffer control (number of lung tumors),[10]; 30 μg/mouse,49%
same,number of tumors compared with controls,[10],statistically fewer tumors than controls
same,size of lung tumors,[10],smaller in size
d-Gly-Cys-(Acm)-Thr-Val-Ser-Cys-(Acm),adhesion of cells to dried peptide,[1],half as well as fibronectin and TSP-1
same,dose-dependent effect on melanoma cell invasion,[3]; FIG. 19,same dose-dependent inhibition
fTrp-Ser-Pro-Cys-Ser-Val-Thr-Cys-Gly-NH2 (For-WSPCSVTCG-NH2; cysteine pairing not given here) [p5],Adhesion as % Thrombospondin,[5],display adhesive properties
same,Adhesion as % Thrombospondin,[5]; listed as P5,79%
same,% of Buffer Control (melanoma cell adhesion to thrombospondin),[6]; 10 μg/ml,99%
same,% of Buffer Control (melanoma cell adhesion to thrombospondin),[6]; 50 μg/ml,104%
same,% of Buffer Control (melanoma cell adhesion to thrombospondin),[6]; 200 μg/ml,89%
same,% of Buffer Control (melanoma cell adhesion to thrombospondin),[6]; 300 μg/ml,83%
same,% Buffer Control (platelet adhesion),[7],109%
same,% Buffer Control (platelet adhesion),[8],107%
same,platelet aggregation,[9],inhibit platelet aggregation
same,% buffer control (number of lung tumors),[10]; 30 μg/mouse,87%
same,number of tumors compared with controls,[10],statistically fewer tumors than controls
fibronectin [reference compound],Adherence as % Control (adherent platelets),platelets,83%
